Reference: PubChem BioAssay (NCI)
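Results reflect a 48-hour exposure of cells in 96-well plates to compound at five concentrations. TGI: concentration producing complete growth inhibition.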

Columns and labels:
Assay in all cases: growth of human tumour cells (NCI), 48 h
HS 578T breast = system: HS 578T breast
T-47D breast = system: T-47D breast
SF-295 CNS = system: SF-295 CNS
HOP-62 NSCLC = system: HOP-62 NSCLC
IGROV1 ovarian = system: IGROV1 ovarian
RPMI-8226 leukemia = system: RPMI-8226 leukemia
MCF7 breast = system: MCF7 breast
HCT-15 colon = system: HCT-15 colon
MDA-MB-231 breast = system: MDA-MB-231 breast
A549 NSCLC = system: A549 NSCLC
TK-10 renal = system: TK-10 renal
SK-MEL-28 melanoma = system: SK-MEL-28 melanoma
CCRF-CEM leukemia = system: CCRF-CEM leukemia
OVCAR-5 ovarian = system: OVCAR-5 ovarian
K-562 leukemia = system: K-562 leukemia
SW-620 colon = system: SW-620 colon
LOX IMVI melanoma = system: LOX IMVI melanoma
OVCAR-3 ovarian = system: OVCAR-3 ovarian
CAKI-1 renal = system: CAKI-1 renal
BT-549 breast = system: BT-549 breast

Row | Structure (SMILES) | TGI (HS 578T breast) [µM] | TGI (T-47D breast) [µM] | TGI (SF-295 CNS) [µM] | TGI (HOP-62 NSCLC) [µM] | TGI (IGROV1 ovarian) [µM] | TGI (RPMI-8226 leukemia) [µM] | TGI (MCF7 breast) [µM] | TGI (HCT-15 colon) [µM] | TGI (MDA-MB-231 breast) [µM] | TGI (A549 NSCLC) [µM] | TGI (TK-10 renal) [µM] | TGI (SK-MEL-28 melanoma) [µM] | TGI (CCRF-CEM leukemia) [µM] | TGI (OVCAR-5 ovarian) [µM] | TGI (K-562 leukemia) [µM] | TGI (SW-620 colon) [µM] | TGI (LOX IMVI melanoma) [µM] | TGI (OVCAR-3 ovarian) [µM] | TGI (CAKI-1 renal) [µM] | TGI (BT-549 breast) [µM]
1 | CCOC(=O)N1CCN(c2nc(C)n(-c3ccccc3)c(=S)c2C#N)CC1 | > 100 | > 100 | > 100 | > 100 | > 63.4 | > 100 | > 100 | > 100 | > 84.3 | > 100 | > 100 | > 100 | > 62.6 | > 100 | > 100 | > 100 | > 100 | > 100 | > 100 | > 100
2 | Clc1ccc(C2=C(c3ccccc3)C(c3ccc(Cl)cc3)N3C(=N[C@H]4CCCC[C@@H]43)N2)cc1 (some centres undefined) | 49.5 | 31.4 | 23.8 |  | 26.6 | 7.56 | 21.2 | 18.8 | 29.8 | 24.4 | 22.3 | 26.5 | 26 | 29.8 | 7.98 | 20.6 | 25.4 | 26.7 | 30.1 | 28.6
3 | CNCCCNC1(c2cc3ccccc3s2)CCCCC1 | 29.1 | 11.9 | 27.5 | 22.4 | 25.5 | 6.18 | 15.5 | 21.7 | 12.6 | 20.4 | 19.4 | 3.91 | 4.51 | 27.5 | 4.11 | 26.3 | 9.94 | 25.4 | 22.1 | 29.8
4 | C[C@]12CC[C@H]3[C@@H](CCC4=CC(=O)CC[C@@]43C)[C@@H]1CC[C@@H]2C(=O)Nc1ccc([N+](=O)[O-])c(C(F)(F)F)c1 | 38.4 | 37.8 | 31.7 | 67.1 | 43.7 | > 100 | 30.5 | 25.7 | 43.4 | 37.1 | 35.3 | 37.4 | 71.3 | > 10 | 73.7 | 37.6 | 30.5 | 60 | 35.9 | 35.6
5 | O=C1N=NC(=O)N1c1cc(C(F)(F)F)cc(C(F)(F)F)c1 | 20.8 | > 30.2 | 9.49 | 15 | 14.8 | 22.1 | > 32.4 | 12 | 6.55 | 12 | > 42.8 | 44.3 | > 45 | 30.5 | 32.9 | > 45.6 | 11.7 | > 23 | 10.2 | 12.9
6 | Cc1ccc([N+](=O)[O-])cc1S(=O)(=O)Nc1ccc(C2=NN(C(=O)c3ccccc3)C(c3cccs3)C2)cc1 (centres undefined) | > 100 | 84.2 | > 100 | 78.3 | > 100 | > 100 | > 100 | > 100 | 44 | > 100 | 75.1 | > 100 | > 100 | > 100 | > 100 | > 100 | > 100 | 45.5 | > 100 | > 100
7 | O=[N+]([O-])C(=C(N1CCCCC1)N1CCCCC1)/C(Cl)=C(\Cl)[N+](=O)[O-] | 11.6 | 3.88 | 46 | 31.4 | 3.29 | 13.7 | 7.06 | 5.48 | 14.8 | 42.4 | 10.1 | 37.3 | > 31.3 | 35.5 | > 100 | 28.7 | 5.13 | 10.7 | 2.83 | 19
8 | CC(C)(C)OC(=O)CC(NC(=O)OC(C)(C)C)C(=O)NC(C(=O)O)C(O)c1ccccc1 (centres undefined) | > 100 | > 100 | > 100 | > 100 | > 100 | > 100 | > 100 | > 100 | > 100 | > 100 | > 100 | > 100 | > 100 | > 100 | > 100 | > 100 | > 100 | > 100 | > 100 | > 100
9 | CC(C)(C)C1(O)C=C(O)C(=O)N1NC(=O)c1ccccc1Nc1ccccc1 (centres undefined) | > 100 | > 100 | > 100 |  | > 100 | > 100 | > 100 | > 100 | > 100 | > 100 | > 100 | > 100 | 57.6 | > 100 | > 100 | > 100 | > 100 | 31.9 | > 100 | > 100
10 | COC(=O)C1(Cc2cccc(C)c2)Cc2c(C)cccc2C1=O (centres undefined) | > 100 | > 100 | > 100 | > 100 | > 100 | > 100 | 90.8 | > 100 | > 100 | > 100 | > 100 | > 100 | > 100 | > 100 | > 100 | > 100 | > 100 | > 100 | > 100 | > 100
11 | Cc1coc2c1C(=O)C(=O)c1c-2ccc2c1CCCC2(C)C | > 31.4 | > 100 | 8.49 | 12.1 | 29.7 | > 33.9 | 5.89 | 6.4 | > 100 | 11.9 | > 85.8 | 7.52 | > 100 | 28.5 | 11.5 | 12.5 | 1.9 | 1.47 | 5.15 | 9.28
12 | COc1cc(C2S/C(=C/c3ccccc3)C(=O)N2c2cc(Cl)c(Cl)cc2Cl)cc(OC)c1OC (centres undefined) | > 57 | > 100 | > 100 | > 100 | > 100 | > 62.4 | > 100 | > 100 | > 100 | > 100 | > 100 | > 100 | > 88.9 | > 100 | > 78.3 | > 100 | > 79.3 | > 100 | > 87.1 | > 74.4
13 | CSc1ccc(-c2cc(-c3nc4ccccc4[nH]3)nc(N)c2C#N)cc1 | > 100 | 54.7 | 53 | 42.1 | 55.9 | 77.2 | 54.6 | 61.9 | 36.1 | > 100 | 99.7 | 53.2 | 80.1 | 75.2 | 58.6 | > 100 | 44 | 43.1 | 54.4 | 59.6
14 | CCOC(=O)c1[nH]cc(C)c1-c1c[nH]c2ccccc12 | 61.7 | > 100 | > 93 | > 100 | > 100 | 41.9 | > 60.8 | > 100 | > 58.9 | > 100 | > 80.3 | > 100 | > 78.1 | > 100 | > 80.4 | > 100 | 40.2 | > 76.8 | > 100 | 93.8
15 | CCOC(=O)c1c(-c2ccccc2)nc2c(OC)nccn12 | > 100 | > 100 | > 100 | > 100 | > 100 | > 100 | > 100 | > 100 | > 100 | > 100 | > 100 | > 100 | > 100 |  | > 100 | > 100 | > 100 | > 100 | > 100 | > 100
16 | COc1ccc2nc3cc([N+](=O)[O-])ccc3c(Nc3ccc(S(=O)(=O)N=C(N)N)cc3)c2c1 | > 100 | 88.7 | > 100 | > 100 |  | 42.6 | 96.4 | > 100 | > 100 | > 100 | > 100 | > 100 | 36.5 | > 100 | 63.1 | > 100 | > 100 | 72.6 | > 100 | > 100
17 | C=C(C)[C@H]1C[C@@H]2O[C@@](O)(/C(C)=C\C(=O)/C=C(/C)C[C@H]3OC(=O)[C@@]24O[C@H]34)[C@@H]1O | > 100 | > 100 | > 100 |  | > 100 | > 100 | > 100 | > 100 | > 100 | > 100 | > 100 | > 100 | > 100 | > 100 | > 100 | > 100 | > 100 | > 100 | > 100 | > 100
18 | CCC1c2[nH]c3ccccc3c2C[C@H]2C(=O)N3CCC[C@H]3C(=O)N12 (some centres undefined) | > 100 | > 100 | > 100 | > 100 | > 100 | > 100 | > 100 | > 100 | > 100 | > 100 | > 100 | > 100 |  | > 100 | > 100 | > 100 | > 100 | > 100 | > 100 | > 100
